Test [1] deals with T1, hen egg white lysozyme (HEWL); hen egg lysozyme (Sigma) (Gallus gallus, UniProt P00698).
T1 construct: gene LYZ; native mature enzyme, 129 residues, commercial (Sigma) for tracer 2; endogenous in diluted egg white for tracer 1
The test is described as follows: fluorescence polarization, egg white. The class given is biochemical. Conditions: 25 mM phosphate, 0.15 M NaCl, pH 7.4, 25 °C; tracer 3 nM; diluted egg white; labelled compound.

For test [2], the target named is T1, hen egg white lysozyme (HEWL); hen egg lysozyme (Sigma). In words: fluorescence polarization. It counts as biochemical. Conditions: 25 mM phosphate, 0.15 M NaCl, pH 7.4, 25 °C; tracer 3 nM, HEWL 100 µg/mL, added after pre-incubation with non-reactive egg whites; labelled compound.

Structures are written as SMILES.

T1 sequence (P00698 19-147): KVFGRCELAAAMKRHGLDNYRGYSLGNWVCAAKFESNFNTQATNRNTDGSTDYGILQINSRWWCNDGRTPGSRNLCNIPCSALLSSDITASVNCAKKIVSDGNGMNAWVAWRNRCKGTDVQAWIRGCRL

On to `CC(=O)N[C@H]1[C@H](OCCNC(=S)Nc2ccc3c(c2)C(=O)OC32c3ccc(O)cc3Oc3cc(O)ccc32)O[C@H](CO)[C@@H](O[C@@H]2O[C@H](CO)[C@@H](O[C@@H]3O[C@H](CO)[C@@H](O)[C@H](O)[C@H]3NC(C)=O)[C@H](O)[C@H]2NC(C)=O)[C@@H]1O` [compound 1, tracer 1], for which the “fluorescence polarization, egg white” value in test [1] is “a rapid increase in the FP signal was observed, followed by a stable plateau (Figure 6b)”.
Turning to `CC(=O)N[C@H]1[C@H](OCCNC(=S)Nc2ccc3c(c2)C(=O)OC32c3ccc(O)cc3Oc3cc(O)ccc32)O[C@H](CO)[C@@H](O[C@@H]2O[C@H](CO)[C@@H](O[C@@H]3O[C@H](CO)[C@@H](O[C@@H]4O[C@H](CO)[C@@H](O[C@@H]5O[C@H](CO)[C@@H](O)[C@H](O)[C@H]5NC(C)=O)[C@H](O)[C@H]4NC(C)=O)[C@H](O)[C@H]3NC(C)=O)[C@H](O)[C@H]2NC(C)=O)[C@@H]1O` [compound 2, tracer 2], the fluorescence polarization result in test [2] is given as “A sharp increase in the FP signal followed by a decrease over time was observed”.
